19 compounds from patent EP0181129B1, “N6-substituted deoxyribose analogs of adenosines” (WARNER-LAMBERT COMPANY, priority 1984, dated 1986) can be followed below.

The target in one test is T1, adenosine A1 receptor (Rattus norvegicus, UniProt P25099).
T1 construct: brain minus cerebellum and brainstem from male Long Evans rats (150-200 g) was homogenized; from tissue; host or cells: rat whole brain minus cerebellum and brainstem, membrane homogenate
T1 sequence (P25099 1-326): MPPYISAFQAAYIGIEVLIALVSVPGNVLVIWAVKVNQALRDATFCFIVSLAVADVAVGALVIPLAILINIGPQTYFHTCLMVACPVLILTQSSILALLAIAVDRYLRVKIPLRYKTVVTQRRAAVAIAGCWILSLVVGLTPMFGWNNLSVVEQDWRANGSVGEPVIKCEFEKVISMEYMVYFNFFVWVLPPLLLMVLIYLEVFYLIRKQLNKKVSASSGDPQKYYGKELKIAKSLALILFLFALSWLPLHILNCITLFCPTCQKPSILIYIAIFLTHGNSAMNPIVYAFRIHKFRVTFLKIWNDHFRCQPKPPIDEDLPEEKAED
Description: Adenosine Receptor Binding - A1 Receptor Affinity (RBA1), [3H]-CHA displacement. The following applies: rat whole brain membranes, one hour at 25°C. How it is done: While brain minus cerebellum and brainstem from male Long Evans rats (150-200 g) was homogenized in 30 volumes of ice-cold 0.05 M Tris-CHI buffer pH 7.7 using a Brinkman Polytron PT-10, (setting number 6 for 20 seconds) and centrifuged for ten minutes at 20,000 x g (Sorvall RC-2), 4°C. The supernatant was discarded, and the pellet was resuspended and centrifuged as before. The pellet was resuspended in 20 ml Tris-HCI buffer containing two International Units/ml of adenosine deaminase (Sigma type III from calf intestinal mucosa), incubated at 37°C for 30 minutes, then subsequently at 0°C for ten minutes. The homogenate was again centrifuged, and the final pellet was resuspended in ice-cold 0.05 M Tris-HCI buffer pH 7.7 to a concentration of 20 mg/ml original wet tissue weight and used immediately.
Tissue homogenate (10 mg/ml) was incubated in 0.05 M Tris-HCI buffer pH 7.7 containing 1.0 nM (^3H]-N^e-cyclohexyladenosine ([^3H]-CHA) with or without tests agents in triplicate for one hour at 25°C. Incubation volume was 2 ml. Unbound [^3H]-CHA was separated by rapid filtration under reduced pressure through Whatman glass fiber (GF/B) filters. The filters were rinsed three times with 5 ml of ice cold 0.05 M Tris-HCI buffer pH 7.7. The radio-labeled ligand retained on the filter was measured by liquid scintillation spectrophotometry after shaking the filters for one hour or longer on a mechanical shaker in 10 ml of Beckman Ready-Solv HP scintillation cocktail.
Nonspecific binding was defined as the binding which occurred in the presence of 1 mM theophylline. […] The Scatchard plot was calculated by linear regression of the line obtained by plotting the amount of radioligand bound (pmoles/gram of tissue) [formula] Since the amount of radioligand bound was a small fraction of the total amount added, free radioligand was defined as the concentration (nM) of radioligand added to the incubation mixture. The Hill coefficient was calculated by linear regression of the line obtained by plotting the log of the bound radioligand vs the log of the [formula] The maximal number of binding sites (Bmax) was calculated from the Scatchard plot.

The target in a further test is T2, adenosine A2 receptor (Rattus norvegicus, UniProt P30543).
T2 construct: Brains were thawed and then kept on ice while the striata were dissected out; tissue Pel-Freez (Rogers, Arkansas); host or cells: rat striatum, membranes
Description: Adenosine Receptor Binding - A2 Receptor Affinity (RBA2), [3H]NECA displacement. The following applies: 4 nM [3H]NECA with 50 nM N6-cyclopentyladenosine, rat striatal membranes, 60 minutes at 25°C; read-out: Receptor Binding RBA—2. On the procedure:
Brains from 200-500 g mixed sex Sprague-Dawley rats were purchased from Pel-Freez (Rogers, Arkansas). Fresh brains from male Long-Evans hooded rats (Blue Spruce Farms, Altamont, NY) gave essentially indentical results. Brains were thawed and then kept on ice while the striata were dissected out. Striata were disrupted in 10 vol of ice-cold 50 mM Tris.HCI (pH 7.7 at 25°C, pH 8.26 at 5°C) (Tris) for 30 seconds in a Polytron PT―10 (Brinkmann) at setting 5. The suspension was centrifuged at 50,000 xg for ten minutes, the supernatant discarded, the pellet resuspended in 10 vol ice-cold Tris as above, recentrifuged, resuspended at 1 g/5 ml, and stored in plastic vials at -70°C (stable for at least six months). When needed, tissue was thawed at room temperature, disrupted in a Polytron, and kept on ice until used.
All incubations were for 60 minutes at 25°C in 12x75 mm glass tubes containing 1 ml Tris with 5 mg original tissue weight of rat weight of rat striatal membranes, 4 nM [^3H]-N-ethyl adenosine-5'-carboxamide ([^3H]NECA), 50 nM N^6-cyclopentyladenosine (to eliminate A1 receptor binding), 10 mM MgCl2, 0.1 units/ml, of adenosine deaminase and 1% dimethylsulfoxide. N^6-Cyclopentyladenosine was dissolved at 10 mM in 0.02 N HCI and diluted in Tris. Stock solutions and dilutions of N^6-cyclopentyladenosine could be stored at -20°C for several months. Test compounds were dissolved at 10 mM in dimethylsulfoxide or the same day as the experiment, and diluted in dimethylsulfoxide to 100x the final incubation concentration. Control incubations received an equal volume (10 µl) of dimethylsulfoxide; the resulting concentration of dimethylsulfoxide had no effect on binding. [^3H]NECA was diluted to 40 nM in Tris. The membrane suspension (5 mg/0.79 ml) contained sufficient MgCl2 and adenosine deaminase to give 10 mM and 0.1 units/ml, respectively, final concentration in the incubation. […] After all additions, the rack of tubes was vortexed, and the tubes were then incubated for 60 min at 25°C in a shaking water bath. The rack of tubes was vortexed an additonal time halfway through the incubation.
Incubations were terminated by filtration through 2.4 cm GF/B filters under reduced pressure. Each tube was filtered as follows: the contents of the tube were poured onto the filter, 4 ml of ice-cold Tris were added to the tube and the contents poured onto the filter, and the filter was washed twice with 4 ml of ice-cold Tris. The filtration was complete in about twelve seconds. Filters were put in scintillation vials, 8 ml of Formula 947 scintillation fluid added, and the vials left overnight, shaken, and counted in a liquid scintillation counter at 40% efficiency.
Nonspecific binding was defined as binding in the presence of […] N^6-cyclopentyladenosine, and specific binding was defined as total binding minus nonspecific binding. The IC50 was calculated by weighted nonlinear least squares curve-fitting to the mass-action equation. [formula] • where Y is cpm bound T is cpm total binding without drug S is cpm specific binding without drug D is the concentration of drug • and K is the IC50 of the drug Weighting factors were calculated under the assumption that the standard deviation was proportional to the predicted value of Y. Nonspecific binding was treated as a very large (infinite) concentration of drug in the computer analysis.

A further test relates to male Swiss-Webster mice. The test is described as follows: Antiwrithing (AW) test, acetic acid induced writhing. It counts as in vivo. The settings on record: Mus musculus, ip; administered intraperitoneally to mice; read-out: ED50 (dose necessary to suppress writhing by 50% relative to vehicle controls).
The mark [1] stands for this setting: 1.0 nM [3H]-CHA, read-out: Receptor Binding RBA—1.
Setting [2] is: Receptor Binding RBA—1, 1.0 nM [3H]-CHA.

Where two headings read alike, the source gives them in different places.

T2 sequence (P30543 whole entry): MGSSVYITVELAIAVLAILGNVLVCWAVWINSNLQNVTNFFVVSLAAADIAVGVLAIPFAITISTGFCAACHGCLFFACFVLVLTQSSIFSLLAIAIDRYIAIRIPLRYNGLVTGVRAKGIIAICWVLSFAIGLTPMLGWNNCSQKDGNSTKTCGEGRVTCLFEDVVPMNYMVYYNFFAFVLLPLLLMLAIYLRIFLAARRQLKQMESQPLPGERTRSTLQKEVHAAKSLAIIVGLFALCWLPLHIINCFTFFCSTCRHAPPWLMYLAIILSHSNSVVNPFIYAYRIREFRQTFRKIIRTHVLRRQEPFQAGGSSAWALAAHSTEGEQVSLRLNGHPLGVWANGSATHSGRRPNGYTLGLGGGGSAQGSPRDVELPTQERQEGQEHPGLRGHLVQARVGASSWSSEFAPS

Consider `C[C@H]1O[C@@H](n2cnc3c(NCC(c4ccccc4)c4ccccc4)ncnc32)[C@H](O)[C@@H]1O` [Example 1, N^s-[2,2-Diphenylethyl]-5'-deoxyadenosine], for which the IC50 was 227 nM at adenosine A1 receptor (setting [1]) and 1.11 µM at adenosine A2 receptor.

In the case of `C[C@H]1O[C@@H](n2cnc3c(NC4CCc5ccccc54)ncnc32)[C@H](O)[C@@H]1O` (some centres unmarked) [Example 2, N^6-[1-Indanyl]-5'-deoxyadenosine], the IC50 was determined as 1680 nM at adenosine A1 receptor (setting [1]) and 21.2 µM at adenosine A2 receptor.

In the case of `C[C@H](Cc1ccccc1)Nc1ncnc2c1ncn2[C@@H]1O[C@H](C)[C@@H](O)[C@H]1O` [Example 3], the results for the IC50 at adenosine A1 receptor (setting [1]) and at adenosine A2 receptor were 40 nM and 5.7 µM, respectively.

Turning to `C[C@@H](Cc1ccccc1)Nc1ncnc2c1ncn2[C@@H]1O[C@H](C)[C@@H](O)[C@H]1O` [Example 4, (S)-N^6-[Phenylisopropyl]-5'-deoxyadenosine], the IC50 at adenosine A1 receptor (setting [1]) was 556 nM; at adenosine A2 receptor it was 20 µM.

Regarding `C[C@H]1O[C@@H](n2cnc3c(NC4CCCCC4)ncnc32)[C@H](O)[C@@H]1O` [Example 6, N^6-[Cyclohexyl]-5'-deoxyadenosine], the values for the IC50 at adenosine A1 receptor (setting [1]) and on adenosine A2 receptor were 52 nM and 21.4 µM, respectively.

Turning to `CSC[C@H]1O[C@@H](n2cnc3c(N[C@H](C)Cc4ccccc4)ncnc32)[C@H](O)[C@@H]1O` [Example 7, (R)-N^6[Phenylisopropyl]-5'-deoxy-5'-thiomethyladenosine], the figures for the IC50 on adenosine A1 receptor (setting [2]) and on adenosine A2 receptor were 51 nM and 6.3 µM, respectively.

In the case of `CSC[C@H]1O[C@@H](n2cnc3c(N[C@@H](C)Cc4ccccc4)ncnc32)[C@H](O)[C@@H]1O` [Example 8, (S)-N^6-[Phenylisopropyl]-5'-deoxy-5'-thiomethyladenosine], the IC50 on adenosine A1 receptor (setting [2]) worked out at 700 nM; on adenosine A2 receptor it was 44 µM.

For `CSC[C@H]1O[C@@H](n2cnc3c(NC4CCCCC4)ncnc32)[C@H](O)[C@@H]1O` [Example 9, N^6-[Cyclohexyl]-5'-deoxy-5'-thiomethyladenosine], the results for the IC50 at adenosine A1 receptor (setting [2]) and on adenosine A2 receptor were 9 nM and 7.4 µM, respectively.

Turning to `CSC[C@H]1O[C@@H](n2cnc3c(NC4CCCC4)ncnc32)[C@H](O)[C@@H]1O` [Example 10, N^6-[Cyclopentyl]-5'-deoxy-5'-thiomethyladenosine], the IC50 stood at 13 nM on adenosine A1 receptor (setting [1]) and 7.2 µM at adenosine A2 receptor.

As to `CSC[C@H]1O[C@@H](n2cnc3c(NCC(c4ccccc4)c4ccccc4)ncnc32)[C@H](O)[C@@H]1O` [Example 11, N^6-[2,2-Diphenyl]-5'-deoxy-5'-thiomethyladenosine], the values for the IC50 on adenosine A1 receptor (setting [2]) and at adenosine A2 receptor were 660 nM and 2 µM, respectively.

For orientation: ED50 means the dose that gives a 50% effect, or the effect in half of the subjects. Turning to `CSC[C@H]1O[C@@H](n2cnc3c(NC4CCc5ccccc54)ncnc32)[C@H](O)[C@@H]1O` (some centres unmarked) [Example 12, N^6-[1-Indanyl]-5'-deoxy-5'-thiomethyladenosine], the values for the IC50 at adenosine A1 receptor (setting [2]) and on adenosine A2 receptor were 1490 nM and 58.2 µM, respectively. In the test on male Swiss-Webster mice, the ED50 amounted to 3 mg/kg.

Turning to `O[C@@H]1[C@H](O)[C@@H](CCl)O[C@H]1n1cnc2c(NCC(c3ccccc3)c3ccccc3)ncnc21` [Example 13, N^6-[2,2-Diphenylethyl]-5'-deoxy-5'-chloroadenosine], the IC50 turned out to be 53 nM on adenosine A1 receptor (setting [1]) and 0.24 µM on adenosine A2 receptor.

For `O[C@@H]1[C@H](O)[C@@H](CCl)O[C@H]1n1cnc2c(NC3CCc4ccccc43)ncnc21` (some centres unmarked) [Example 14, N^6-[1-Indanyl]-5'-deoxy-5'-chloroadenosine], the results for the IC50 at adenosine A1 receptor (setting [1]) and at adenosine A2 receptor were 218 nM and 8.65 µM, respectively.

Turning to `C[C@H](Cc1ccccc1)Nc1ncnc2c1ncn2[C@@H]1O[C@H](CCl)[C@@H](O)[C@H]1O` [Example 15, (R)-N^6-[Phenylisopropyl]-5'-deoxy-5'-chloro-adenosine], the IC50 at adenosine A1 receptor (setting [1]) was found to be 3 nM; on adenosine A2 receptor, 1.6 µM. In the test with male Swiss-Webster mice, the ED50 came out at 1.8 mg/kg.

For the compound `C[C@@H](Cc1ccccc1)Nc1ncnc2c1ncn2[C@@H]1O[C@H](CCl)[C@@H](O)[C@H]1O` [Example 16, (S)-N^6-[Phenylisopropyl]-5'-deoxy-5'-chloroadenosine], the IC50 amounted to 35 nM at adenosine A1 receptor (setting [1]) and 7.9 µM on adenosine A2 receptor.

On to `O[C@@H]1[C@H](O)[C@@H](CCl)O[C@H]1n1cnc2c(NC3CCCCC3)ncnc21` [Example 17, N^6-[Cyclohexyl]-5' -deoxy-5' -chloro-adenosine], for which the IC50 on adenosine A1 receptor (setting [1]) was found to be 2 nM; on adenosine A2 receptor, 2.7 µM.

Consider `O[C@@H]1[C@H](O)[C@@H](CCl)O[C@H]1n1cnc2c(NC3CCCC3)ncnc21` [Example 18, N^6-[Cyclopentyl]-5'-deoxy-5'-chloroadenosine], for which the values for the IC50 on adenosine A1 receptor (setting [1]) and at adenosine A2 receptor were 1.2 nM and 2.8 µM, respectively.

In the case of `CC(=O)O[C@@H]1[C@H](OC(C)=O)[C@@H](C)O[C@H]1n1cnc2c(NCc3cccc4ccccc34)ncnc21` [Example 21, N^6-a-Naphthylmethyl-2',3'-di-O-acetyl-5'-deoxyadenosine], at adenosine A1 receptor (setting [1]), the IC50 was determined as 2520 nM.

With `CC(=O)O[C@@H]1[C@H](OC(C)=O)[C@@H](C)O[C@H]1n1cnc2c(NC3CCCc4ccccc43)ncnc21` (some centres unmarked) [Example 22, N^6-1-Tetralinyl-2' ,3'-di-O-acetyl-5'-deoxyadenosine], the IC50 at adenosine A1 receptor (setting [1]) stood at 607 nM.
